Assay results as given in the NIST ThermoML archive (doi:10.1021/acs.jced.8b00692).

Assay: xn = mol fraction of the nth substance listed
Details: 102 kPa, Liquid; for viscosity: Concentric cylinders viscometry; for speed of sound: Frequency=3 MHz, Single path-length method; for mass density: Vibrating tube method

CCCCCCC1CCCCC1 [hexylcyclohexane] + CCCCCCCCCCCCCCCC
Details | mass density [kg/m3] | speed of sound [m/s] | viscosity [mPa·s]
293.15 K, x1 = 0.1003 | 775.83 | 1357.1 | 3.35
293.15 K, x1 = 0.2002 | 778.43 | 1356.8 | 3.21
293.15 K, x1 = 0.2996 | 781.19 | 1356.9 | 3.09
293.15 K, x1 = 0.4192 | 784.77 | 1357 | 2.93
293.15 K, x1 = 0.5004 | 787.39 | 1357.1 | 2.82
293.15 K, x1 = 0.603 | 790.94 | 1357.4 | 2.7
293.15 K, x1 = 0.8003 | 798.59 | 1358.6 | 2.44
293.15 K, x1 = 1 | 807.71 | 1361 | 2.2
303.15 K, x1 = 0.1003 | 768.88 | 1319.8 | 2.66
303.15 K, x1 = 0.2002 | 771.48 | 1319.5 | 2.57
303.15 K, x1 = 0.2996 | 774.23 | 1319.6 | 2.47
303.15 K, x1 = 0.4192 | 777.8 | 1319.6 | 2.36
303.15 K, x1 = 0.5004 | 780.41 | 1319.7 | 2.28
303.15 K, x1 = 0.603 | 783.93 | 1319.8 | 2.19
303.15 K, x1 = 0.8003 | 791.52 | 1320.7 | 2
303.15 K, x1 = 1 | 800.56 | 1322.1 | 1.81
313.15 K, x1 = 0.1003 | 761.95 | 1283.2 | 2.17
313.15 K, x1 = 0.2002 | 764.54 | 1282.8 | 2.1
313.15 K, x1 = 0.2996 | 767.28 | 1282.9 | 2.02
313.15 K, x1 = 0.4192 | 770.83 | 1282.8 | 1.94
313.15 K, x1 = 0.5004 | 773.42 | 1282.9 | 1.87
313.15 K, x1 = 0.603 | 776.92 | 1282.9 | 1.8
313.15 K, x1 = 0.8003 | 784.45 | 1283.5 | 1.65
313.15 K, x1 = 1 | 793.4 | 1284.2 | 1.51
323.15 K, x1 = 0.1003 | 755.02 | 1247.3 | 1.8
323.15 K, x1 = 0.2002 | 757.6 | 1246.9 | 1.75
323.15 K, x1 = 0.2996 | 760.32 | 1246.9 | 1.68
323.15 K, x1 = 0.4192 | 763.85 | 1246.7 | 1.62
323.15 K, x1 = 0.5004 | 766.42 | 1246.7 | 1.57
323.15 K, x1 = 0.603 | 769.89 | 1246.6 | 1.52
323.15 K, x1 = 0.8003 | 777.35 | 1246.9 | 1.4
323.15 K, x1 = 1 | 786.22 | 1247.1 | 1.29
333.15 K, x1 = 0.1003 | 748.09 | 1212.3 | 1.51
333.15 K, x1 = 0.2002 | 750.65 | 1211.9 | 1.47
333.15 K, x1 = 0.2996 | 753.35 | 1211.7 | 1.42
333.15 K, x1 = 0.4192 | 756.86 | 1211.5 | 1.37
333.15 K, x1 = 0.5004 | 759.41 | 1211.4 | 1.33
333.15 K, x1 = 0.603 | 762.86 | 1211.2 | 1.29
333.15 K, x1 = 0.8003 | 770.24 | 1211.1 | 1.2
333.15 K, x1 = 1 | 779.02 | 1211 | 1.09
343.15 K, x1 = 0.1003 | 741.2 | – | 1.29
343.15 K, x1 = 0.2002 | 743.7 | – | 1.27
343.15 K, x1 = 0.2996 | 746.5 | – | 1.22
343.15 K, x1 = 0.4192 | 749.9 | – | 1.18
343.15 K, x1 = 0.5004 | 752.4 | – | 1.15
343.15 K, x1 = 0.603 | 755.9 | – | 1.13
343.15 K, x1 = 0.8003 | 763.1 | – | 1.05
343.15 K, x1 = 1 | 771.8 | – | 0.964
353.15 K, x1 = 0.1003 | 734.2 | – | 1.12
353.15 K, x1 = 0.2002 | 736.7 | – | 1.09
353.15 K, x1 = 0.2996 | 739.5 | – | 1.06
353.15 K, x1 = 0.4192 | 742.9 | – | 1.02
353.15 K, x1 = 0.5004 | 745.4 | – | 1
353.15 K, x1 = 0.603 | 748.8 | – | 0.971
353.15 K, x1 = 0.8003 | 756 | – | 0.919
353.15 K, x1 = 1 | 764.6 | – | 0.847
363.15 K, x1 = 0.1003 | 727.3 | – | 0.981
363.15 K, x1 = 0.2002 | 729.7 | – | 0.977
363.15 K, x1 = 0.2996 | 732.5 | – | 0.931
363.15 K, x1 = 0.4192 | 735.9 | – | 0.901
363.15 K, x1 = 0.5004 | 738.3 | – | 0.88
363.15 K, x1 = 0.603 | 741.7 | – | 0.873
363.15 K, x1 = 0.8003 | 748.8 | – | 0.817
363.15 K, x1 = 1 | 757.3 | – | 0.758

CCCC1CCCCC1 [1-cyclohexylpropane] + CCCCCCCCCCCCCCCC
Details | mass density [kg/m3] | speed of sound [m/s] | viscosity [mPa·s]
293.15 K, x1 = 0.2001 | 775.57 | 1349.9 | 2.9
293.15 K, x1 = 0.4008 | 778.35 | 1341.6 | 2.35
293.15 K, x1 = 0.5001 | 779.98 | 1336.9 | 2.11
293.15 K, x1 = 0.6009 | 781.97 | 1331.7 | 1.85
293.15 K, x1 = 0.8301 | 787.65 | 1318.8 | 1.34
293.15 K, x1 = 1 | 793.54 | 1307.8 | 0.996
303.15 K, x1 = 0.2001 | 768.58 | 1312.1 | 2.34
303.15 K, x1 = 0.4008 | 771.27 | 1303.8 | 1.94
303.15 K, x1 = 0.5001 | 772.84 | 1298.4 | 1.74
303.15 K, x1 = 0.6009 | 774.74 | 1293.3 | 1.55
303.15 K, x1 = 0.8301 | 780.16 | 1279.2 | 1.14
303.15 K, x1 = 1 | 785.73 | 1266.2 | 0.86
313.15 K, x1 = 0.2001 | 761.59 | 1275.2 | 1.93
313.15 K, x1 = 0.4008 | 764.18 | 1266.6 | 1.61
313.15 K, x1 = 0.5001 | 765.69 | 1260.8 | 1.46
313.15 K, x1 = 0.6009 | 767.5 | 1255.6 | 1.31
313.15 K, x1 = 0.8301 | 772.64 | 1240.3 | 0.975
313.15 K, x1 = 1 | 777.9 | 1225.6 | 0.75
323.15 K, x1 = 0.2001 | 754.61 | 1239 | 1.61
323.15 K, x1 = 0.4008 | 757.08 | 1230 | 1.37
323.15 K, x1 = 0.5001 | 758.53 | 1224 | 1.25
323.15 K, x1 = 0.6009 | 760.24 | 1218.5 | 1.13
323.15 K, x1 = 0.8301 | 765.09 | 1202 | 0.858
323.15 K, x1 = 1 | 770.04 | 1185.9 | 0.663
333.15 K, x1 = 0.2001 | 747.61 | 1203.8 | 1.37
333.15 K, x1 = 0.4008 | 749.96 | 1194.3 | 1.18
333.15 K, x1 = 0.5001 | 751.33 | 1188 | 1.07
333.15 K, x1 = 0.6009 | 752.95 | 1182.1 | 0.97
333.15 K, x1 = 0.8301 | 757.51 | 1164.5 | 0.747
333.15 K, x1 = 1 | 762.12 | 1147.3 | 0.584
343.15 K, x1 = 0.2001 | 740.6 | – | 1.19
343.15 K, x1 = 0.4008 | 742.9 | – | 1.03
343.15 K, x1 = 0.5001 | 744.1 | – | 0.946
343.15 K, x1 = 0.6009 | 745.6 | – | 0.863
343.15 K, x1 = 0.8301 | 749.8 | – | 0.673
343.15 K, x1 = 1 | 754.2 | – | 0.544
353.15 K, x1 = 0.2001 | 733.6 | – | 1.02
353.15 K, x1 = 0.4008 | 735.7 | – | 0.905
353.15 K, x1 = 0.5001 | 736.9 | – | 0.834
353.15 K, x1 = 0.6009 | 738.3 | – | 0.764
353.15 K, x1 = 0.8301 | 742.2 | – | 0.594
353.15 K, x1 = 1 | 746.1 | – | 0.477
363.15 K, x1 = 0.2001 | 726.5 | – | 0.918
363.15 K, x1 = 0.4008 | 728.5 | – | 0.805
363.15 K, x1 = 0.5001 | 729.5 | – | 0.746
363.15 K, x1 = 0.6009 | 730.8 | – | 0.685
363.15 K, x1 = 0.8301 | 734.6 | – | 0.503
363.15 K, x1 = 1 | 738 | – | 0.452
